# Laboratory results as given in patent publication US20110251220A1, “Pharmaceutical compositions comprising gamma secretase modulators” (priority 2008, published 2011).
# What was measured:
# MM cells [1] = assay: Proliferation assay (CellTiter-Glo), concentration of 50% growth inhibition; format: cell-based; details: Homo sapiens; read-out: Concentration at which 50% cell growth inhibition was observed
# Procedure: Human MM cell lines used were as follows: NCI-H929, OPM-2, LP-1, RPMI-8226, U266 (DSMZ, Braunschweig, Germany). Cell lines were cultured in RPMI 1640 medium (Biochrom, Berlin, Germany) supplemented with 10% heat-inactivated fetal calf serum (FCS, Gibco, Karlsruhe, Germany), 1 mM sodium pyruvate and 100 units/ml penicillin and 100 μg/ml streptomycin (Gibco). Human osteoclasts were obtained as described in the reference of Zavrski I, Krebbel H, Wildemann B, et al. Proteasome inhibitors abrogate osteoclast differentiation and osteoclast function. Biochem Biophys Res Commun. 2005; 333:200-205. Briefly, peripheral blood mononuclear cells (PBMC) were isolated from whole blood of healthy volunteers, using a Ficoll-Hypaque density gradient. The adherent fraction of the isolated mononuclear cells was cultured for 21 days in MEM medium (Sigma-Aldrich Chemie, Taufkirchen, Germany) supplemented with 10% FCS, 100 U/ml penicillin, 100 μg/ml streptomycin, 50 ng/ml M-CSF, and 25 ng/ml RANKL (osteoclastogenic medium), before coculture experiments and treatment with the inventive compounds started. Human osteoblasts were obtained according to Robey P G, Termine J D. Human bone cells in vitro. Calcif Tissue Int. 1985; 37:453-460 as described in Hecht M, Heider U, Kaiser M, von Metzler I, Sterz J, Sezer O. Osteoblasts promote migration and invasion of myeloma cells through upregulation of matrix metalloproteinases, urokinase plasminogen activator, hepatocyte growth factor and activation of p38 MAPK. Br J Haematol. 2007; 138: 446-458. Briefly, trabecular bone specimens from patients without malignant disease undergoing knee or hip surgery were minced and washed to remove bone marrow cells. The bone fragments were resuspended in Dulbecco's modified Eagle's medium (DMEM)/HAM's F12 medium (Biochrom, Berlin, Germany) supplemented with 10% FCS and cultured in tissue culture flasks until a confluent cell monolayer was obtained. Culturing of functional osteoblasts was confirmed by alkaline phosphatase (ALP) staining (kit from Sigma, USA), realtime RT-PCR analysis of expression of osteoblast markers (ALP, osteocalcin) and by von-Kossa staining before coculture and treatment experiments were started.
# (§1) The compound according to example 1, hereinafter referred to as GSI15, (compound RH02015SC, Maybridge, Acros Organics, Geel, Belgium) was freshly dissolved as 26 mM stock solution in Dimethylsulfoxide (DMSO). Multiple myeloma therapeutics used were melphalan (marketed as Alkeran®, GlaxoSmithKline, Munich, Germany) and bortezomib (marketed as Velcade®, Janssen-Cilag, Neuss, Germany). Melphalan was freshly dissolved at 10 mg/ml in 0.9% NaCl-solution. Bortezomib was freshly dissolved at 100 ng/ml in 0.9% NaCl solution. Gamma Secretase Inhibitor (GSI) treatment for apoptosis assessment by AnnexinV/PI staining, cell cycle analysis and coculture experiments was performed in 6-well plates. GSI15 stock solution was added directly to the cell suspension. GSI treatment for assaying proliferation was performed in 96-well plates. 10,000 cells per well were seeded in 50 μl medium per well before 50 μl of a 2× solution of GSI15 prediluted in medium were added per well. […]
# (§2) For assaying proliferation/viability of cells CellTiter-Glo Luminescent Cell Viability Assay (Promega, Mannheim, Germany) was used. In this assay the number of viable cells at a given time point is determined by quantification of ATP present, which serves as a measure of metabolically active cells. […]
# MM cells [2] = assay: Cell cycle analysis (propidium iodide staining), MM cells; format: cell-based, human; details: after 48 h and 72 h
# Procedure: as §1, with “plates.” for “plates. 10,000 cells per well were seeded in 50 μl medium per well before 50 μl of a 2× solution of GSI15 prediluted in medium were added per well.”
# For cell cycle analysis 2×10^5 cells were spun down, medium was aspirated and cells washed with PBS. […] After 10 minutes incubation in the dark at room temperature, cells were analyzed by flow cytometry. The amount of apoptotic cells was determined by AnnexinV/propidium iodide staining using Human AnnexinV-FITC Kit (Bender Medsystems, Vienna, Austria), according to manufacturer's protocol. […] Cells were then spun down again, resuspended in binding buffer containing PI and analyzed by flow cytometry.
# LP-1 cells = assay: Proliferation assay (CellTiter-Glo), LP-1; format: cell-based, human; details: LP-1, 48 h treatment
# Procedure: (§3) Human MM cell lines used were as follows: NCI-H929, OPM-2, LP-1, RPMI-8226, U266 (DSMZ, Braunschweig, Germany). Cell lines were cultured in RPMI 1640 medium (Biochrom, Berlin, Germany) supplemented with 10% heat-inactivated fetal calf serum (FCS, Gibco, Karlsruhe, Germany), 1 mM sodium pyruvate and 100 units/ml penicillin and 100 μg/ml streptomycin (Gibco). Human osteoclasts were obtained as described in the reference of Zavrski I, Krebbel H, Wildemann B, et al. Proteasome inhibitors abrogate osteoclast differentiation and osteoclast function. Biochem Biophys Res Commun. 2005; 333:200-205. Briefly, peripheral blood mononuclear cells (PBMC) were isolated from whole blood of healthy volunteers, using a Ficoll-Hypaque density gradient. The adherent fraction of the isolated mononuclear cells was cultured for 21 days in MEM medium (Sigma-Aldrich Chemie, Taufkirchen, Germany) supplemented with 10% FCS, 100 U/ml penicillin, 100 μg/ml streptomycin, 50 ng/ml M-CSF, and 25 ng/ml RANKL (osteoclastogenic medium), before coculture experiments and treatment with the inventive compounds started. […]
# as §2
# OBL = assay: PARP cleavage in osteoblasts (OBL), mono- and coculture; format: cell-based, human; details: mono- and cocultures, high doses of GSI15
# Procedure: as §3
# Whole cell extracts were prepared and quantified as described in Jundt F, Anagnostopoulos I, Forster R, Mathas S, Stein H, Dorken B. Activated Notch1 signaling promotes tumor cell proliferation and survival in Hodgkin and anaplastic large cell lymphoma. […]
# U266 cells = assay: Proliferation assay (CellTiter-Glo), U266 (Notch1 negative control); format: cell-based, human; details: U266 (lacking Notch1), 48 h treatment
# Procedure: as §3, §2
smiles,measurement,setting,value
"CC(C)c1ccc(S(=O)(=O)Nc2cccnc2Oc2ccc(Cl)cc2)cc1 [Example 1, N-(2-(4-chlorophenoxy)pyridin-3-yl)-4-isopropylbenzenesulfonamide]",IC50,MM cells [1],20 µM
same,"distribution of G1-, S- and G2-phase",MM cells [2],remained unaltered
same,concentration of maximum effect on proliferation,LP-1 cells,60 µM
same,proliferation,LP-1 cells,dose-dependent reduction of proliferation
same,PARP cleavage (apoptosis),OBL,Neither in OBL nor in MSC apoptosis was induced
same,proliferation,U266 cells,almost not affected
